Data taken from patent US20010011063A1, “Substituted 2,4-diamino-1,3,5-triazines, processes for their preparation and their use as herbicides and plant growth regulators” (priority 1999, published 2001).

Key:
Format in all cases: in vivo
[1] = system: Stellaria media, Lolium multiflorum, Amaranthus retroflexus, Sinapis alba, Avena sativa and Settaria viridis; experiment: Pre-emergence effect on weeds (greenhouse pot test); conditions: application rate of 1 kg or less of active substance per hectare; visually scored after 3 to 4 weeks by comparison with untreated controls
Source text: Seeds or rhizome pieces of mono and dicotyledonous weed plants are placed in sandy loam soil in plastic pots and covered with soil. The compounds according to the invention which are formulated in the form of wettable powders or emulsion concentrates are then applied to the soil cover in the form of aqueous suspensions or emulsions at an application rate of 600 to 800 l of water/ha (converted), in various dosages.

[2] = system: Sinapis alba, Echinochloa crus-galli, Lolium multiforum, Stellaria media, Cyperus iria, Amaranthus retroflexus, Settaria viridis and Avena sativa; experiment: Post-emergence effect on weeds (greenhouse pot test); conditions: application rate of 1 kg or less of active substance per hectare; treated at the three-leaf stage; scored visually after about 3 to 4 weeks vs untreated controls
Experimental: Seeds or rhizome pieces of mono- and dicotyledonous weeds are placed in sandy loam soil in plastic pots, covered with soil and grown in a greenhouse under good growth conditions. Three weeks after sowing, the test plants are treated at the three-leaf stage. The compounds according to the invention, formulated as wettable powders or emulsion concentrates, are sprayed, at various dosages, onto the green parts of the plants at an application rate of 600 to 800 l of water/ha (converted). After the test plants had remained in the greenhouse for about 3 to 4 weeks under optimum growth conditions, the effect of the preparations is scored visually by comparison with untreated controls. The agents according to the invention also have good herbicidal activity post-emergence against a broad spectrum of economically important weed grasses and broad-leaved weeds.

[3] = system: Cyperus monti, Echinochloa crus-galli and Sagitaria pygmaea; experiment: Action on harmful plants in rice (paddy rice conditions); conditions: poured into the dammed water, visual scoring about three weeks after application; note: test concentration or dose not given here
Source text: Transplanted and sown rice and also typical rice weeds (gramineous and broad-leaved) are cultivated in closed plastic pots in a greenhouse to the three-leaf stage (Echinochloa crus-galli 1.5-leaf) under paddy rice conditions (height of water: 2-3 cm). This is followed by treatment with the compounds according to the invention. For this purpose, the formulated active compounds are suspended, dissolved or emulsified in water and applied by pouring them into the dammed water around the test plants in different dosages.

Compound	herbicidal activity pre-emergence against harmful plants [1]	herbicidal activity post-emergence against harmful plants [2]	herbicidal activity against harmful plants which are typical for rice crops [3]
CC(C)(F)c1nc(N)nc(NC(CCc2ccccc2)CC2CC2(F)F)n1 (mixture of isomers) [Example 1-157]	very good herbicidal activity	very good herbicidal activity	very good herbicidal activity
CC(C)c1nc(N)nc(NC(CCc2ccccc2)CC2CC2(F)F)n1 (mixture of isomers) [Example 1-158]	very good herbicidal activity	very good herbicidal activity	very good herbicidal activity
CC(C)(F)c1nc(N)nc(NC(CCc2cccc(F)c2)C2CC2(Cl)Cl)n1 (mixture of isomers) [Example 2-6]	–	very good herbicidal activity	–
CC(C)(F)c1nc(N)nc(NC(CCc2ccccc2)CC2CC2(F)F)n1 (mixture of isomers) [Example 2-157]	very good herbicidal activity	very good herbicidal activity	very good herbicidal activity
CC(C)c1nc(N)nc(NC(CCc2ccccc2)CC2CC2(F)F)n1 (mixture of isomers) [Example 2-158]	very good herbicidal activity	very good herbicidal activity	very good herbicidal activity
CC(F)c1nc(N)nc(NC(CCCc2ccccc2)C2CC2)n1 (mixture of isomers) [Example 3-3]	very good herbicidal activity	very good herbicidal activity	very good herbicidal activity
CC(F)c1nc(N)nc(NC(CCCc2ccccc2)C2CC2)n1 (mixture of isomers) [Example 4-3]	very good herbicidal activity	very good herbicidal activity	very good herbicidal activity
CC(C)c1nc(N)nc(N[C@@H](CCc2ccccc2)C2CCC2)n1 [Example 1-14]	very good herbicidal activity	very good herbicidal activity	very good herbicidal activity
CC(C)(F)c1nc(N)nc(N[C@@H](CCc2ccccc2)C2CCC2)n1 [Example 1-15]	very good herbicidal activity	very good herbicidal activity	very good herbicidal activity
Cc1nc(N)nc(N[C@@H](CCc2ccccc2)C2CCC2)n1 [Example 1-16]	very good herbicidal activity	very good herbicidal activity	very good herbicidal activity
CC(C)c1nc(N)nc(N[C@@H](CCc2cccc(Cl)c2)C2CCC2)n1 [Example 1-23]	very good herbicidal activity	very good herbicidal activity	very good herbicidal activity
CC(C)(F)c1nc(N)nc(N[C@@H](CCc2cccc(Cl)c2)C2CCC2)n1 [Example 1-24]	very good herbicidal activity	very good herbicidal activity	very good herbicidal activity
Cc1cccc(CC[C@H](Nc2nc(N)nc(C(C)C)n2)C2CCC2)c1 [Example 1-27]	very good herbicidal activity	very good herbicidal activity	very good herbicidal activity
Cc1cccc(CC[C@H](Nc2nc(N)nc(C(C)(C)F)n2)C2CCC2)c1 [Example 1-28]	very good herbicidal activity	very good herbicidal activity	very good herbicidal activity
CC(C)c1nc(N)nc(N[C@@H](CCc2ccccc2)CC2CC2)n1 [Example 1-144]	very good herbicidal activity	very good herbicidal activity	very good herbicidal activity
CC(C)(F)c1nc(N)nc(N[C@@H](CCc2ccccc2)CC2CC2)n1 [Example 1-145]	very good herbicidal activity	very good herbicidal activity	very good herbicidal activity
CC(C)c1nc(N)nc(N[C@H](CCc2ccccc2)C2CCC2)n1 [Example 2-14]	very good herbicidal activity	very good herbicidal activity	very good herbicidal activity
CC(C)(F)c1nc(N)nc(N[C@H](CCc2ccccc2)C2CCC2)n1 [Example 2-15, 2-Amino-4-(1-fluoro-1-methylethyl)-6-[(1 R)-3-phenyl-1-cyclobutyl-1-propylamino]-1,3,5-triazine]	very good herbicidal activity	very good herbicidal activity	very good herbicidal activity
Cc1nc(N)nc(N[C@H](CCc2ccccc2)C2CCC2)n1 [Example 2-16]	very good herbicidal activity	–	very good herbicidal activity
CC(C)c1nc(N)nc(N[C@H](CCc2cccc(Cl)c2)C2CCC2)n1 [Example 2-23]	very good herbicidal activity	very good herbicidal activity	very good herbicidal activity
CC(C)(F)c1nc(N)nc(N[C@H](CCc2cccc(Cl)c2)C2CCC2)n1 [Example 2-24]	very good herbicidal activity	very good herbicidal activity	very good herbicidal activity
Cc1cccc(CC[C@@H](Nc2nc(N)nc(C(C)C)n2)C2CCC2)c1 [Example 2-27]	very good herbicidal activity	very good herbicidal activity	very good herbicidal activity
Cc1cccc(CC[C@@H](Nc2nc(N)nc(C(C)(C)F)n2)C2CCC2)c1 [Example 2-28]	very good herbicidal activity	very good herbicidal activity	very good herbicidal activity
CC(C)c1nc(N)nc(N[C@H](CCc2ccccc2)CC2CC2)n1 [Example 2-144]	very good herbicidal activity	very good herbicidal activity	very good herbicidal activity
CC(C)(F)c1nc(N)nc(N[C@H](CCc2ccccc2)CC2CC2)n1 [Example 2-145]	very good herbicidal activity	very good herbicidal activity	very good herbicidal activity
Nc1nc(N[C@@H](CCCc2ccc(Cl)cc2Cl)C2CC2)nc(C(F)(F)F)n1 [Example 3-6]	very good herbicidal activity	very good herbicidal activity	very good herbicidal activity
Cc1nc(N)nc(N[C@@H](CCCc2ccccc2)C2CC2)n1 [Example 3-8]	very good herbicidal activity	very good herbicidal activity	very good herbicidal activity
CCc1nc(N)nc(N[C@@H](CCCc2ccccc2)C2CC2)n1 [Example 3-9]	very good herbicidal activity	very good herbicidal activity	very good herbicidal activity
